Data on 15 compounds can be found in US11008337B2, “Chiral diaryl macrocycles as modulators of protein kinases” (Turning Point Therapeutics, Inc., priority 2015, dated 2021).

Common to all, as to format: cell-based
The test system of test [1] is T cell lymphoma Karpas-299 cell line (harboring endogenous NPM-ALK fusion gene). Briefly: Cell proliferation assay, Karpas-299 cells (CellTiter-Glo). The settings on record: Homo sapiens, 72 hours incubation. How it is done: Cell Proliferation Assays.
Colorectal cell lines KM 12 (harboring endogenous TPM3-TRKA fusion gene) cells were cultured in DMEM medium, supplemented with 10% fetal bovine serum and 100 U/mL of penicillin/streptomycin. 5000 cells were seeded in 384 well white plate for 24 hours before compounds treatment. Cell proliferation was measured using CellTiter-Glo luciferase-based ATP detection assay (Promega) following the manufactures's protocol after 72 hours incubation. IC50 determinations were performed using GraphPad Prism software (GraphPad, Inc., San Diego, Calif.). Alternatively, essential thrombocythemia cell line SET-2 cells (harboring endogenous JAK2 […] point mutation) or T cell lymphoma Karpas-299 cell line (harboring endogenous NPM-ALK fusion gene) were cultured in RPMI medium, supplemented with 10% fetal bovine serum and 100 U/mL of penicillin/streptomycin. 5000 cells were seeded in 384 well white plate for 24 hours before compounds treatment. Cell proliferation was measured using CellTiter-Glo luciferase-based ATP detection assay (Promega) following the manufactures's protocol after 72 hours incubation. IC50 determinations were performed using GraphPad Prism software (GraphPad, Inc., San Diego, Calif.).
Background: In ATP-based viability assays light output follows the ATP content of the culture.

Test [2] has as its system Colorectal cell lines KM 12 (harboring endogenous TPM3-TRKA fusion gene). Briefly: Cell proliferation assay, KM12 cells (CellTiter-Glo). As to conditions: Homo sapiens, 72 hours incubation.
The target of test [3] is T1, CD74-ROS1 Ba/F3 (Homo sapiens, UniProt P08922).
T1 construct: fused on or other part: P04233 (HLA class II histocompatibility antigen gamma chain)
T1 sequence (P08922 whole entry, change not shown, the tested form may be a part): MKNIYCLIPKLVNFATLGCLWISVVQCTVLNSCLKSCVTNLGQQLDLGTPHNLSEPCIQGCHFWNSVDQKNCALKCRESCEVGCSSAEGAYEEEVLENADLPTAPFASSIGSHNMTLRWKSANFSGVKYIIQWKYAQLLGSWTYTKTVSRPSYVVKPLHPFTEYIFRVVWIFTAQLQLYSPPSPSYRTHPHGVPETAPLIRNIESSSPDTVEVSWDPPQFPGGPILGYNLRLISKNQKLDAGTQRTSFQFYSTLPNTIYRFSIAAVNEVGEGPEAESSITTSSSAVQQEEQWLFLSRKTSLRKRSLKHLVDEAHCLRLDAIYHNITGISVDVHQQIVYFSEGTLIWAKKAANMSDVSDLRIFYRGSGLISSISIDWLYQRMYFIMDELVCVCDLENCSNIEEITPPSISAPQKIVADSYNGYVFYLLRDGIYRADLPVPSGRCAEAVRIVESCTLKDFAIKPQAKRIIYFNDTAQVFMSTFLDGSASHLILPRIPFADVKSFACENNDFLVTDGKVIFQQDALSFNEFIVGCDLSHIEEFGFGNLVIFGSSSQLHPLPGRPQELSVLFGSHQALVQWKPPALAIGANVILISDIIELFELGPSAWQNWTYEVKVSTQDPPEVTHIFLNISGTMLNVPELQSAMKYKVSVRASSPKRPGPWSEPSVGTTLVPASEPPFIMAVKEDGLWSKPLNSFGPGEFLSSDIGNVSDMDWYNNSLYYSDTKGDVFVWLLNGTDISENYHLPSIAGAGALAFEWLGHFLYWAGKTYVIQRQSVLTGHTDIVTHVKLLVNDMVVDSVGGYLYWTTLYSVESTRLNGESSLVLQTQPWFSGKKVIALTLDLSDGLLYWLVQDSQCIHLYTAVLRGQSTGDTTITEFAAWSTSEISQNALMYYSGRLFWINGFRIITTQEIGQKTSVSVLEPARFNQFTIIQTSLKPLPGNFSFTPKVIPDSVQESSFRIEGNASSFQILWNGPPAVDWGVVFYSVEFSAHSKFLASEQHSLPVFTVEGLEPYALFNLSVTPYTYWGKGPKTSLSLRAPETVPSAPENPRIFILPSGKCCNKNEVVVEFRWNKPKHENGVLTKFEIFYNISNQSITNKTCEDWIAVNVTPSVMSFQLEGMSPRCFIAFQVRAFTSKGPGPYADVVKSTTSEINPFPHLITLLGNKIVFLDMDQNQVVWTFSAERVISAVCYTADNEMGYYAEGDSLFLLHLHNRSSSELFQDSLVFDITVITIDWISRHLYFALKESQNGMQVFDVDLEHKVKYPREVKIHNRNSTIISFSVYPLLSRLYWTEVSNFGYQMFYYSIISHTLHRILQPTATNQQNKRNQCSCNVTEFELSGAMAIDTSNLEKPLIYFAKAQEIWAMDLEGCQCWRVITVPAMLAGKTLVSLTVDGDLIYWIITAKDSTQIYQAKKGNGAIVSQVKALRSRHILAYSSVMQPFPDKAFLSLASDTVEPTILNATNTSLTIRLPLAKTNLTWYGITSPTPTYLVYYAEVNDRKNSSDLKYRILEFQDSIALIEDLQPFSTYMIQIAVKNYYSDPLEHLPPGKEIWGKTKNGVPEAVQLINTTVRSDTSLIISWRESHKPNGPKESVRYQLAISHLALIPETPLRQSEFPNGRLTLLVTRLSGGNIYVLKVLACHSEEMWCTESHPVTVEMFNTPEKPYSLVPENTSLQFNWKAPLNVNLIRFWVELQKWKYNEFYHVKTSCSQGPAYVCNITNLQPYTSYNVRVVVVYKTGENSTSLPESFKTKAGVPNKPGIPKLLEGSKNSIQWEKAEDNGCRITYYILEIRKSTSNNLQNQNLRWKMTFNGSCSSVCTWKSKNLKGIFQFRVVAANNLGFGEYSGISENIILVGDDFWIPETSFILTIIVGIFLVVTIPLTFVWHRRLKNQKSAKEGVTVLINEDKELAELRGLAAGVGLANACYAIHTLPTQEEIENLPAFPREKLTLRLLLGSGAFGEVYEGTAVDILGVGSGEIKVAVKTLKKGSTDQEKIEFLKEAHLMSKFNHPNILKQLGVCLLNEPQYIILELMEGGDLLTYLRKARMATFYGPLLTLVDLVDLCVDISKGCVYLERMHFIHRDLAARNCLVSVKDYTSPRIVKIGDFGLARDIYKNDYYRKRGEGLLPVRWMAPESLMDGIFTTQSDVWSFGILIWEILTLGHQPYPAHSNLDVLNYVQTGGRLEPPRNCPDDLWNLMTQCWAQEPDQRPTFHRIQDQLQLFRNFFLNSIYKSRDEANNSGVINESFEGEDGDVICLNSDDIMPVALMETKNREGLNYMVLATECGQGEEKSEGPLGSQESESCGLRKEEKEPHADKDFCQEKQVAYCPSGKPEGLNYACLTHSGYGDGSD
Briefly: Cell proliferation assay, CD74-ROS1 Ba/F3 stable cell line (CellTiter-Glo). The settings on record: Ba/F3-CD74-ROS1 wild type cells, 72 hours compound incubation; read-out: Cell Proliferation IC50 CD74-ROS1 Ba/F3. From the text: (§1) Creation of CD74-ROS1 and EML4-ALK Ba/F3 Stable Cell Lines and Cell Proliferation Assays.
(§2) The CD74-ROS1 wild-type gene and EML4-ALK wild-type gene (variant 1) were synthesized at GenScript and cloned into pCDH-CMV-MCS-EF1-Puro plasmid (System Biosciences, Inc). Ba/F3-CD74-ROS1 and Ba/F3-EML4-ALK wild type cell lines were generated by infecting Ba/F3 cells with lentivirus containing CD74-ROS1 wide-type and EML4-ALK wild type. Stable cell lines were selected by puromycin treatment, followed by IL-3 withdrawal. 3000 cells were seeded in 384 well white plate overnight before compound treatment. Cell proliferation was measured using CellTiter-Glo luciferase-based ATP detection assay (Promega) following the manufactures's protocol after 72 hours of various concentration of compound incubation. IC50 determinations were performed using GraphPad Prism software (GraphPad, Inc., San Diego, Calif.).

Test [4] concerns essential thrombocythemia cell line SET-2 cells (harboring endogenous JAK2 point mutation). Briefly: Cell proliferation assay, SET-2 cells (CellTiter-Glo). As to conditions: Homo sapiens, 72 hours incubation, read-out: Cell Proliferation IC50 SET2. In short, it runs like this:
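Karpas-299 (NPM-ALK) or SET-2 (JAK2 […]) cells in RPMI with 10% FBS, seeded 24 h before compound addition. Viability read by CellTiter-Glo ATP luminescence after 72 h incubation; IC50 derived from dose–response curves.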

Test [5] deals with T2, EML4-ALK Ba/F3 (Homo sapiens, UniProt Q9UM73).
T2 construct: fused on or other part: Q9HC35 (Echinoderm microtubule-associated protein-like 4)
T2 sequence (Q9UM73 whole entry, change not shown, the tested form may be a part): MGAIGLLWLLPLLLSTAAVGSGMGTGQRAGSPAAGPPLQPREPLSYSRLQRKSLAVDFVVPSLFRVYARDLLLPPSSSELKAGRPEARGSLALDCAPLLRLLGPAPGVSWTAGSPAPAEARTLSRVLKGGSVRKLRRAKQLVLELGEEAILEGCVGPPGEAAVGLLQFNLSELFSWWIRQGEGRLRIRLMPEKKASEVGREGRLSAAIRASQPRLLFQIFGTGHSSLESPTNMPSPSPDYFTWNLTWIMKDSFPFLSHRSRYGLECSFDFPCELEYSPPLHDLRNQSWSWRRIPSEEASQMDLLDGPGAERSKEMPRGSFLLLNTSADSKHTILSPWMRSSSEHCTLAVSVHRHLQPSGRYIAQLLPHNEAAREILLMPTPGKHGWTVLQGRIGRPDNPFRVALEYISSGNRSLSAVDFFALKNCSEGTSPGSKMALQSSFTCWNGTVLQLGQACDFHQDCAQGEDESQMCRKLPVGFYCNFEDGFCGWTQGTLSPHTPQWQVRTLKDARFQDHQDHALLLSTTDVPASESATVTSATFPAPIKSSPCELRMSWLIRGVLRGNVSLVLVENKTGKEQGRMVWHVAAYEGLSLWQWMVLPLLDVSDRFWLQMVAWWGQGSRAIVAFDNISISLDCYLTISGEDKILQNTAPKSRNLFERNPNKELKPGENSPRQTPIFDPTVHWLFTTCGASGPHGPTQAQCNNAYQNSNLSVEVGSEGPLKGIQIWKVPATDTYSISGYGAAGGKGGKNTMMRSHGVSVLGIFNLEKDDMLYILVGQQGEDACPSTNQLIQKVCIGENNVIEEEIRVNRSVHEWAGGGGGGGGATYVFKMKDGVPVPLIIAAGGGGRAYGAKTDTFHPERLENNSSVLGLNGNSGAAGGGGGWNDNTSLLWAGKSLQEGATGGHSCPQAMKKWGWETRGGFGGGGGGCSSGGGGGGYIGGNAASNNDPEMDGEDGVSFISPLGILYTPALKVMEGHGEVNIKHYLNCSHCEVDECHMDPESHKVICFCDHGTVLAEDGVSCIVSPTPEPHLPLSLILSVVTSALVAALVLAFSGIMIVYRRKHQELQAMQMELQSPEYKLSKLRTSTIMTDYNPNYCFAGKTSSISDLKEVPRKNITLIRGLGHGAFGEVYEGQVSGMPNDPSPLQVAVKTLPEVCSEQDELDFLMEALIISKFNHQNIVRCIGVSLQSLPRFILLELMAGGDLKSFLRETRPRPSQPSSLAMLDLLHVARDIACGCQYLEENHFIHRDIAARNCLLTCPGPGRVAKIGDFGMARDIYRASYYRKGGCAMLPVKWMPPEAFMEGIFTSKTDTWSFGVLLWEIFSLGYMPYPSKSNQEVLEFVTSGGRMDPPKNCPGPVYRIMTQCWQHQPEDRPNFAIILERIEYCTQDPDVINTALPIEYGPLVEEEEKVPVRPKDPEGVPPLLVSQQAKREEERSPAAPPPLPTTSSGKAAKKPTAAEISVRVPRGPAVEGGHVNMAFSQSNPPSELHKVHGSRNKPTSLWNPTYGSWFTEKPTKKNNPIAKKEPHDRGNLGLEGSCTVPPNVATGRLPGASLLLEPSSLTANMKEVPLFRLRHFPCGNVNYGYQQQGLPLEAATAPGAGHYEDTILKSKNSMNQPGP
Briefly: Cell proliferation assay, EML4-ALK Ba/F3 stable cell line (CellTiter-Glo). As to conditions: Ba/F3-EML4-ALK wild type (variant 1) cells, 72 hours compound incubation; read-out: Cell Proliferation IC50 EML4-ALK Ba/F3.
Excerpt: as §1, §2

For `C[C@H]1Nc2ccn3ncc(c3n2)C(=O)N[C@H](CO)COc2ccc(F)cc21` [Compound 8, (6R,13R)-11-fluoro-6-(hydroxymethyl)-13-methyl-6,7,13,14-tetrahydro-1,15-ethenopyrazolo[4,3-f][1,4,8,10]benzoxatriazacyclotridecin-4(5H)-one], the IC50 in test [1] was found to be 1500 nM; in test [2], 17 nM; in test [4] it was 406 nM. The GI50 in test [3] is 34.7 nM; in test [5], 2130 nM.

In the case of `C[C@H]1Nc2ccn3ncc(c3n2)C(=O)NC[C@H](CF)Oc2ccc(F)cc21` [Compound 9, (7R,13R)-11-fluoro-7-(fluoromethyl)-13-methyl-6,7,13,14-tetrahydro-1,15-ethenopyrazolo[4,3-f][1,4,8,10]benzoxatriazacyclotridecin-4(5H)-one], the values for the IC50 in test [1], in test [2] and in test [4] were 73 nM, 0.4 nM and 93 nM, respectively. For the same compound, the GI50 in test [3] and in test [5] was 0.2 nM in each case.

With `C[C@H]1Nc2ccn3ncc(c3n2)C(=O)NC[C@@H](CF)Oc2ccc(F)cc21` [Compound 10, (7S,13R)-11-fluoro-7-(fluoromethyl)-13-methyl-6,7,13,14-tetrahydro-1,15-ethenopyrazolo[4,3-f][1,4,8,10]benzoxatriazacyclotridecin-4(5H)-one], the IC50 in test [1] was 80 nM; in test [2] it was 1.4 nM; in test [4], 57 nM. Also, the GI50 was 0.2 nM in test [3] and 96.3 nM in test [5].

On to `C[C@H]1Nc2ccn3ncc(c3n2)C(=O)N[C@H](CF)COc2ccc(F)cc21` [Compound 11, (6S,13R)-11-fluoro-6-(fluoromethyl)-13-methyl-6,7,13,14-tetrahydro-1,15-ethenopyrazolo[4,3-f][1,4,8,10]benzoxatriazacyclotridecin-4(5H)-one], for which the figures for the IC50 in test [1], in test [2] and in test [4] were 590 nM, 2 nM and 187 nM, respectively. The GI50 in test [3] is 18.9 nM; in test [5] it was 2430 nM.

With `C[C@H]1Nc2ccn3ncc(c3n2)C(=O)NC[C@H](CN(C)C)Oc2ccc(F)cc21` [Compound 12, (7R,13R)-7-[(dimethylamino)methyl]-11-fluoro-13-methyl-6,7,13,14-tetrahydro-1,15-ethenopyrazolo[4,3-f][1,4,8,10]benzoxatriazacyclotridecin-4(5H)-one], the IC50 in test [1] turned out to be 2270 nM; in test [2] it was 42 nM; in test [4], 1960 nM. In addition, the GI50 was determined as 130 nM in test [3] and 5100 nM in test [5].

On to `C[C@H]1Nc2ccn3ncc(c3n2)C(=O)N[C@@H](CN(C)C)COc2ccc(F)cc21` [Compound 13, (6S,13R)-6-[(dimethylamino)methyl]-11-fluoro-13-methyl-6,7,13,14-tetrahydro-1,15-ethenopyrazolo[4,3-f][1,4,8,10]benzoxatriazacyclotridecin-4(5H)-one], for which the values for the IC50 in test [1], in test [2] and in test [4] were 3220 nM, 69 nM and 4030 nM, respectively. Also, the GI50 in test [3] was determined as 112 nM; in test [5] it was 1480 nM.

Take `CNC(=O)[C@@H]1CNC(=O)c2cnn3ccc(nc23)N[C@H](C)c2cc(F)ccc2O1` [Compound 14, (7S,13R)-7-(N-methylcarboxamide)-11-fluoro-13-methyl-6,7,13,14-tetrahydro-1,15-ethenopyrazolo[4,3-f][1,4,8,10]benzoxatriazacyclotridecin-4(5H)-one]: the IC50 is above 10000 nM in test [1], 180 nM in test [2] and 3780 nM in test [4]. Also, the GI50 was 300 nM in test [3] and above 10000 nM in test [5].

For the compound `CNC(=O)[C@H]1CNC(=O)c2cnn3ccc(nc23)N[C@H](C)c2cc(F)ccc2O1` [Compound 15, (7R,13R)-7-(N-methylcarboxamide)-11-fluoro-13-methyl-6,7,13,14-tetrahydro-1,15-ethenopyrazolo[4,3-f][1,4,8,10]benzoxatriazacyclotridecin-4(5H)-one], the figures for the IC50 in test [1], in test [2] and in test [4] were above 10000 nM, 160 nM and 4790 nM, respectively. Also, the GI50 in test [3] was 1000 nM; in test [5] it was above 10000 nM.

As for `C[C@H]1Nc2ccn3ncc(c3n2)C(=O)N[C@@H](C(F)F)COc2ccc(F)cc21` [Compound 16, (6R,13R)-6-(difluoromethyl)-11-fluoro-13-methyl-6,7,13,14-tetrahydro-1,15-ethenopyrazolo[4,3-f][1,4,8,10]benzoxatriazacyclotridecin-4(5H)-one], the IC50 in test [1] turned out to be 470 nM; in test [2], 0.4 nM; in test [4], 665 nM. The GI50 in test [3] was 112 nM; in test [5] it was 1910 nM.

Turning to `C[C@H]1Nc2ccn3ncc(c3n2)C(=O)N[C@H](C(F)F)COc2ccc(F)cc21` [Compound 17, (6S,13R)-6-(difluoromethyl)-11-fluoro-13-methyl-6,7,13,14-tetrahydro-1,15-ethenopyrazolo[4,3-f][1,4,8,10]benzoxatriazacyclotridecin-4(5H)-one], the IC50 in test [1] was found to be 297 nM; in test [2], 0.2 nM; in test [4] it was 5 nM. The GI50 was found to be 3 nM in test [3] and 2690 nM in test [5].

Consider `C[C@H]1Nc2ccn3ncc(c3n2)C(=O)NC[C@H](C(F)F)Oc2ccc(F)cc21` [Compound 18, (7R,13R)-7-(difluoromethyl)-11-fluoro-13-methyl-6,7,13,14-tetrahydro-1,15-ethenopyrazolo[4,3-f][1,4,8,10]benzoxatriazacyclotridecin-4(5H)-one], for which the IC50 in test [1] was determined as 24.7 nM; in test [2] it was 0.2 nM; in test [4], 98.6 nM. The values for the GI50 in test [3] and in test [5] were 0.2 nM and 28.4 nM, respectively.

With `CC[C@H]1Nc2ccn3ncc(c3n2)C(=O)NCCOc2ccc(F)cc21` [Compound 19, (13R)-13-ethyl-11-fluoro-6,7,13,14-tetrahydro-1,15-ethenopyrazolo[4,3-f][1,4,8,10]benzoxatriazacyclotridecin-4(5H)-one], the IC50 in test [1] is 193 nM; in test [2], 0.6 nM; in test [4] it was 294 nM. For the same compound, the GI50 in test [3] stood at 0.5 nM; in test [5] it was 406 nM.

With `CC[C@H]1CNC(=O)c2cnn3ccc(nc23)N[C@H](CC)c2cc(F)ccc2O1` [Compound 20, (7S,13R)-7,13-diethyl-11-fluoro-6,7,13,14-tetrahydro-1,15-ethenopyrazolo[4,3-f][1,4,8,10]benzoxatriazacyclotridecin-4(5H)-one], the figures for the IC50 in test [1], in test [2] and in test [4] were 144 nM, 3 nM and 404 nM, respectively. Further, the GI50 in test [3] was determined as 0.2 nM; in test [5] it was 151 nM.

With `CC[C@H]1COc2ccc(F)cc2[C@@H](CC)Nc2ccn3ncc(c3n2)C(=O)N1` [Compound 21, (6S,13R)-6,13-diethyl-11-fluoro-6,7,13,14-tetrahydro-1,15-ethenopyrazolo[4,3-f][1,4,8,10]benzoxatriazacyclotridecin-4(5H)-one], the IC50 in test [1] was found to be 8030 nM; in test [2] it was 3 nM; in test [4] it was 1130 nM. For the same compound, the GI50 is 45.2 nM in test [3] and 6790 nM in test [5].

Turning to `O=C1NCCOc2ccc(F)cc2[C@@H](CCO)Nc2ccn3ncc1c3n2` [Compound 22, (13R)-11-fluoro-13-(2-hydroxyethyl)-6,7,13,14-tetrahydro-1,15-ethenopyrazolo[4,3-f][1,4,8,10]benzoxatriazacyclotridecin-4(5H)-one], the results for the IC50 in test [1], in test [2] and in test [4] were 352 nM, 22 nM and 854 nM, respectively. Also, the GI50 in test [3] was 1000 nM; in test [5] it was above 10000 nM.
